Laboratory results from PubChem BioAssay (NCI).
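Compound exposure: 48 hours, 5 concentrations, 96-well plates. Here, GI50 denotes the concentration required for 50% inhibition of growth. TGI: concentration producing complete growth inhibition.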

What was measured:
Experiment in all cases: inhibition of tumour cell growth, NCI panel, 48 h
[1] = test system: M14 melanoma
[2] = test system: SNB-19 CNS
[3] = test system: SF-268 CNS
[4] = test system: ACHN renal
[5] = test system: HOP-92 NSCLC
[6] = test system: NCI-H460 lung
[7] = test system: LOX IMVI melanoma
[8] = test system: NCI/ADR-RES ovarian
[9] = test system: A498 renal
[10] = test system: DU-145 prostate
[11] = test system: OVCAR-3 ovarian
[12] = test system: HOP-62 NSCLC
[13] = test system: RXF 393 renal
[14] = test system: NCI-H23 lung
[15] = test system: UACC-257 melanoma
[16] = test system: 786-0 renal
[17] = test system: SK-MEL-5 melanoma
[18] = test system: MDA-MB-468 breast
[19] = test system: TK-10 renal
[20] = test system: BT-549 breast
[21] = test system: SK-MEL-28 melanoma
[22] = test system: SW-620 colon
[23] = test system: MALME-3M melanoma
[24] = test system: SK-MEL-2 melanoma
[25] = test system: HCC-2998 colon
[26] = test system: KM12 colon
[27] = test system: U251 CNS
[28] = test system: EKVX NSCLC
[29] = test system: MCF7 breast
[30] = test system: MDA-MB-231 breast

`CCOc1ccc(/C=N/NC(=O)Cn2nc(Cc3ccc(OC)cc3)c3onc(C)c3c2=O)cc1` gave a TGI [1] of 75.1 µM, a GI50 [2] of 12.2 µM and a TGI [2] of 32.4 µM. The GI50 [3] was 10.5 µM, the TGI [3] was 27.4 µM and the GI50 [4] was 3.33 µM. For the same compound, the TGI [4] was 11 µM, the GI50 [5] was 3.61 µM and the TGI [5] was 16.5 µM. It also gave a GI50 [6] of 5.32 µM, a TGI [6] of 19.2 µM and a GI50 [7] of 10.9 µM. It also gave a TGI [7] of 27.9 µM, a GI50 [8] of 5.35 µM and a TGI [8] of 19.7 µM. For the same compound, the GI50 [9] was 3.83 µM, the TGI [9] was 13.7 µM and the GI50 [10] was 9.35 µM. It also gave a TGI [10] of 26.9 µM, a GI50 [11] of 3.2 µM and a TGI [11] of 10.4 µM. The GI50 [12] was 4.8 µM, the TGI [12] was 18.1 µM and the GI50 [13] was 2.71 µM. The TGI [13] was 6.38 µM, the GI50 [14] was 10.7 µM and the TGI [14] was 33.1 µM. For the same compound, the GI50 [15] was 13.3 µM, the TGI [15] was 60.9 µM and the GI50 [16] was 2.99 µM. The TGI [16] was 10.4 µM, the GI50 [17] was 39.7 µM and the TGI [17] was greater than 100 µM. For the same compound, the GI50 [18] was 9.93 µM, the TGI [18] was 29.3 µM and the GI50 [19] was 11 µM. The TGI [19] was 28.8 µM, the GI50 [20] was 10.3 µM and the TGI [20] was 27.1 µM. The GI50 [21] was 10.4 µM, the TGI [21] was 24.8 µM and the GI50 [22] was 7.37 µM. The TGI [22] was 36.5 µM, the GI50 [23] was 4.86 µM and the TGI [23] was 19.5 µM. The GI50 [24] was 18.4 µM, the TGI [24] was 41 µM and the GI50 [25] was 11 µM. The TGI [25] was 27.4 µM, the GI50 [26] was 41.8 µM and the TGI [26] was greater than 100 µM. It also gave a GI50 [27] of 3.96 µM, a TGI [27] of 17.1 µM and a GI50 [28] of 10.8 µM. The TGI [28] was 30.3 µM, the GI50 [29] was 4.37 µM and the TGI [29] was 23.9 µM. For the same compound, the GI50 [30] was 9.23 µM and the TGI [30] was 27.9 µM.
